Laboratory results: patent US6653504B1, “Non-hygroscopic salts of active ingredients having therapeutical and/or nutritional activities and orally administrable compositions containing same” (Sigma-Tau Industrie Farmaceutiche Riunite S.p.A., priority 1999, dated 2003)
Structures can show the parent of a compound that is named as a salt.

experiment: Hygroscopicity: increase in weight and appearance after exposure to humidity; format: physicochemical; conditions: exposure to 70±5% relative humidity, at 25° C. for 24 hours

Row | Compound | Appearance | Increase in weight (%)
1 | CC(=O)O[C@H](CC(=O)O)C[N+](C)(C)C.[Cl-] [Acetyl-L-carnitine chloride] | clumped mass | 8
2 | CC(=O)O[C@H](CC(=O)[O-])C[N+](C)(C)C [Acetyl-L-carnitine inner salt] | deliquescent | 19
3 | C[N+](C)(C)C[C@H](O)CC(=O)[O-] [L-carnitine inner salt] | deliquescent | 23

experiment: not given; conditions: background statement, no conditions given; cited from earlier work

Row | Compound | Hygroscopicity of known salts
4 | C[N+](C)(C)C[C@H](O)CC(=O)O.C[N+](C)(C)C[C@H](O)CC(=O)O.O=C([O-])C(O)C(O)C(=O)[O-] [L(−)-carnitine tartrate] | non-hygroscopic
5 | CC(=O)O[C@H](CC(=O)O)C[N+](C)(C)C.O=C([O-])/C=C/C(=O)O [acetyl L(−)-carnitine acid fumarate] | strongly hygroscopic
6 | L(−)-carnitine acid fumarate | non-hygroscopic
